Results from US12298319B2, “Method for measuring alpha value of muscarinic M1 receptor positive allosteric modulators” (Takeda Pharmaceutical Company Limited, priority 2017, dated 2025).
Counter-ions that a name gives are not always drawn.

Columns and labels:
[1] = tested on: layer 5 pyramidal neurons; assay: Electrophysiology, current clamp of layer 5 pyramidal neurons in mPFC slices; format: cell-based, mouse; settings: bath application, Compound D at 10 μM
Procedure: Experiments were performed on coronal brain slices of the medial prefrontal cortex (mPFC) from 4-week-old male C57BL/6 mice. The animals were quickly sacrificed and the brain was placed in an ice-cold NMDG artificial cerebrospinal fluid (ACSF) (in mM): NMDG, 92; KCl, 2.5; CaCl2, 0.5; NaH2PO4, 1.25; MgSO4, 6; NaHCO3, 30; glucose, 25; HEPES, 20; thiourea, 2; Na-ascorbate, 5; and Na-pyruvate, 3) (Ting J. T. et al., Methods Mol Biol. 2014; 1183:221-42). Slices were cut at a thickness of 300 μm with a vibroslicer. Slices were initially transferred to a holding chamber containing NMDG aCSF for 15 minutes at 34° C. Slices were then transferred to a room temperature holding chamber for at least 1 h containing HEPES aCSF (in mM): NMDG, 92; KCl, 2.5; CaCl2, 2; NaH2PO4, 1.25; MgSO4, 2; NaHCO3, 30; glucose, 25; HEPES, 20; thiourea, 2; Na-ascorbate, 5; and Na-pyruvate, 3). Subsequently, the slices were transferred to the recording chamber, in which they were submerged and perfused with aCSF containing the following (in mM): NaCl, 124; KCl, 5; NaH2PO4, 1.2; MgCl2, 1.5; CaCl2, 2.5; glucose, 10; and NaHCO3, 24), at a flow rate of 1-2 ml/min. All buffers were continuously bubbled and saturated with carbogen (95% O2/5% CO2). Current clamp recordings were carried out at 32-33° C. from visually identified pyramidal neurons from layer 5 using a borosilicate pipette (5-7 MΩ) filled with intracellular solution (in mM): K-gluconate, 135; KCl, 4; HEPES, 10; EGTA, 0.2; MgATP, 4; Na2GTP, 0.3; pH 7.3 with KOH). Signals were acquired using a Multiclamp 700B amplifier and a Digidata 1440A interface board (Molecular Devices Japan, Tokyo, Japan), filtered between 2 kHz, sampled at 10 kHz, and analyzed with pClamp10 software.
M1Rs are known to contribute to the three cholinergic effects in layer 5 pyramidal neurons: the resting membrane potential (RMP) and physiological responses such as the after hyperpolarization (AHP) the after depolarization (ADP) that typically follow brief periods of action potential generation (Gulledge et al., J. Neurosci. 2009 Aug. 5; 29(31): 9888-9902). To investigate effects of M1 PAMs with different n value on brain function, cholinergic excitation by Compound D and Compound C were assessed. First, the muscarinic receptor agonist carbachol ([…] for 10 min) was tested by bath application (FIG. 13-A, FIG. 13-B, FIG. 13-C).

rats = assay: Assessment of cholinergic side effects in rats
Procedure: SD Rats were placed individually into observation cages and acclimated for at least 1 h. […] The severity of diarrhea was scored as follows: 0, normal pellets; 1, wet but formed feces; 2, swollen or mucous feces; 3, severe watery diarrhea. For diarrhea, the number of rats and mice, in which more than or equal to 2 was scored, was counted. For fasciculation, the number of rats with marked fasciculation of both the upper and lower limbs was counted. For lacrimation, the number of rats, in which moderate to marked discharge (severer lacrimation than fluid around eyes) was induced, was counted. For salivation, the number of rats with severe salivation, but not just noticeably wet around mouth, was induced was counted. The maximum score during the observation was adopted.
(§1) For diarrhea, the number of rats scored more than or equal to 2 was counted. For fasciculation, the number of rats with marked fasciculation of both the upper and lower limbs was counted. For lacrimation, the number of rats in which moderate to marked discharge (severer lacrimation than fluid around eyes) was counted. For salivation, the number of rats with severe salivation, but not just noticeably wet around mouth, was counted. The maximum score during the observation was adopted. Data were presented as the number of incidence per total rats.
as §1, with “in which loose” for “scored more than”, “mucous stool, or diarrhea was induced” for “equal to 2”, “(severe” for “(severer”, “eyes) was caused” for “eyes)”, “mouth” for “mouth,”

[2] = tested on: scopolamine-induced cognitive deficits in rats; assay: Novel object recognition task (NORT), scopolamine-induced memory deficits; format: in vivo, rat
Procedure: On the day before testing, Long Evans rats were allowed to habituate to the behavioral test room environment for over 1 h, and then they were allowed to habituate to the empty test box (a gray-colored polyvinyl chloride box (40×40×50 cm)) for 10 min individually. Testing was comprised of two 3-min trials called the acquisition and the retention trials. These trials were separated by a given inter-trial interval (ITI). On the testing day, in the acquisition trial, rats were allowed to explore two identical objects (A1 and A2) for 3 min. In the retention trial, rats were again allowed to explore a familiar object (A3) and a novel object (B) for 3 min. The object exploration was defined as rats' licking, sniffing or touching the object with limbs while sniffing. Leaning against the object to look upward, standing or sitting on the object was excluded. The exploration time of each object (A1, A2, A3 and B) in each trial was measured manually. Novel discrimination index (NDI) was calculated using the following equation: novel object interaction/total interaction×100(%).
The acquisition and the retention trials were separated by 4 h ITI. […] Scopolamine (0.1 mg/kg) was administered subcutaneously 30 min prior to the acquisition trial.
(§2) The acquisition and the retention trials were separated by 4 h ITI.
as §2

[3] = carbachol 10 M [sic] for 10 min

Compound: C[N+](C)(C)CCOC(N)=O [Carbachol, carbachol]
- after hyperpolarization (AHP) [1, 3]: suppressed AHP
- resting membrane potential (RMP) [1, 3]: induced depolarization of the RMP
- after depolarization (ADP) ([1]; carbachol for 10 min as printed): produced an ADP potential

Compound: COc1cc2c(cc1OC)C(=O)C(CC1CCN(Cc3ccccc3)CC1)C2 (stereo not shown) [Donepezil, Donepezil hydrochloride]
- cholinergic side effects in addition to diarrhea (rats; 10 mg/kg p.o., rats): induced salivation, myosis, and fasciculation
- diarrhea induction in rats (score) (rats; P≤0.025 at 10 and 30 mg/kg p.o.): induced diarrhea dose-dependently
- NDI in NORT, scopolamine-induced deficits ([2]; 0.3 and 1 mg/kg p.o., rats, P≤0.025): significantly increased NDI
- minimal efficacy dose in rats (cognitive improvement) ([2]; NORT, scopolamine-treated rats, p.o.): 0.3 mg/kg
- NDI ([2]; scopolamine-treated rats, 0.1 mg/kg p.o. alone, Example 28): 52.7%
- NDI ([2]; scopolamine-treated rats, donepezil 0.1 mg/kg p.o. alone, Example 29): 49.5%

Compound: CCN(C)C(=O)Oc1cccc([C@H](C)N(C)C)c1 [Rivastigmine, rivastigmine]
- NDI ([2]; scopolamine-treated rats, rivastigmine 0.1 mg/kg i.p. alone, Example 31): 53.9%
